From PubChem BioAssay (NCI)
Where “and” joins values, the source holds several entries; their conditions need not be identical. Identical values can stand only once.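 These data come from cells grown in 96-well plates and exposed to compound for 48 hours at five concentrations. Abbreviation: GI50, concentration required for 50% inhibition of growth. The concentration for full growth arrest is given as TGI.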

Assays:
Assay in all cases: NCI-60 cell line screen, 48 h
DMS 114 small cell lung = tested on: DMS 114 small cell lung
DLD-1 colon = tested on: DLD-1 colon
DMS 273 small cell lung = tested on: DMS 273 small cell lung
M19-MEL melanoma = tested on: M19-MEL melanoma
LXFL 529 NSCLC = tested on: LXFL 529 NSCLC
DU-145 prostate = tested on: DU-145 prostate
PC-3 prostate = tested on: PC-3 prostate
MDA-MB-435 = tested on: MDA-MB-435
XF 498 CNS = tested on: XF 498 CNS
HOP-18 NSCLC = tested on: HOP-18 NSCLC

| SMILES | TGI (DLD-1 colon) [µM] | TGI (DMS 273 small cell lung) [µM] | TGI (M19-MEL melanoma) [µM] | TGI (LXFL 529 NSCLC) [µM] | TGI (DU-145 prostate) | TGI (PC-3 prostate) [µM] | TGI (MDA-MB-435) | GI50 (DU-145 prostate) | GI50 (PC-3 prostate) | GI50 (MDA-MB-435) | other results |
| --- | --- | --- | --- | --- | --- | --- | --- | --- | --- | --- | --- |
| O=C(O)CCC1CCc2cccc3occ1c23 (centres undefined) | > 100 | > 100 | > 100 | > 100 |  |  |  |  |  |  | TGI (DMS 114 small cell lung): > 100 µM |
| C/C(=N\NC(N)=O)C(CN(C)C)C(c1ccccc1)c1c(O)c2ccccc2oc1=O (centres undefined) |  |  |  |  | > 100 µM | > 100 | > 100 µM |  |  |  |  |
| C[C@H](CSC(=O)c1ccccc1)C(=O)N1c2ccccc2C[C@H]1C(=O)O |  |  |  |  | > 100 µM | > 100 |  |  |  |  |  |
| C/C=C(/CCCCNCCCC)[Si](C)(C)C | 29.8 | 38.2 | 33 | 29.3 |  |  |  |  |  |  | TGI (DMS 114 small cell lung): 33.5 µM; TGI (XF 498 CNS): 23.7 µM |
| CCCCCc1c(C)[nH]c(/C=C2\N=C(c3ccc[nH]3)C=C2Oc2ccc(Cl)cc2)c1C |  |  |  |  | 3.04 µM and 2.91 µM | 7.22 | 0.334 µM and 0.385 µM | 0.0837 µM and 0.0201 µM | 0.115 µM and 0.0236 µM | 0.0587 µM and 0.0352 µM |  |
| COc1cc(Oc2c(O)c(C)c(OC)c(C(C)=O)c2O)c(C(C)=O)c(O)c1C | > 100 | > 100 | > 100 | > 100 |  |  |  |  |  |  | TGI (DMS 114 small cell lung): > 100 µM; TGI (XF 498 CNS): > 100 µM |
| C[C@H](CS(C)(=O)=O)Nc1ncc2cc(Oc3ccc(F)cc3F)c(=O)n(C)c2n1 |  |  |  |  | > 25 µM | > 25 | > 25 µM | > 25 µM | > 25 µM | > 25 µM |  |
| CCCCC[C@H]1C/C=C2/C(=O)C(Cl)=C[C@@H]2C/C=C\CCCC(=O)O[C@@H](CCCCC)C/C=C2/C(=O)C(Cl)=C[C@@H]2C/C=C\CCCC(=O)O1 |  |  |  |  | 1.74 µM | 1.08 | 0.793 µM | 0.494 µM | 0.368 µM | 0.344 µM |  |
| Cn1cc(-c2ccc(CNc3cc(-c4cnc5cc(OCCCN6CCCC6)ccn45)ncn3)cc2)cn1 |  |  |  |  | 31.5 µM | > 100 | 3.19 µM | 15.1 µM | 3.63 µM | 1.71 µM |  |
| C=C(C)[C@@H]1CC[C@@]2(C)[C@H]1[C@H]1CCC3[C@@]4(C)CC[C@H](O)C(C)(C)[C@@H]4CC[C@@]3(C)[C@]1(C)C[C@@H]2O (some centres undefined) |  |  |  |  | > 100 µM | > 100 | 84.9 µM |  |  |  |  |
| CC(C)=CC(=O)CC(=O)C(=O)Nc1ccc(Cl)c(Cl)c1 | > 100 | > 100 | > 100 | > 100 |  |  |  |  |  |  | TGI (DMS 114 small cell lung): > 100 µM |
| Cc1cn2c(/C=N/N/C(N)=N\N)c(-c3ccc(Cl)c([N+](=O)[O-])c3)nc2s1 |  |  |  |  | 3.65 µM | 24.8 | 2.22 µM | 1.12 µM | 9.95 µM | 1.05 µM |  |
| Cc1c2ccncc2c(C)c2c1[nH]c1ccc(OC(C)(C)C)cc12 | 10.4 | 4.36 | 5.54 | 5.5 |  |  |  |  |  |  | TGI (DMS 114 small cell lung): 4.29 µM; TGI (XF 498 CNS): 3.75 µM |
| O=C(Nc1cc(Cl)c(Cl)cc1Cl)C(=O)C(C(=O)c1ccc(Cl)c(Cl)c1)C1OC(=O)c2ccccc21 (centres undefined) | 23.4 | 44.5 | 37.9 | 22.9 |  |  |  |  |  |  | TGI (DMS 114 small cell lung): 39.5 µM |
| CCc1c2c(nc3cccc(N)c13)-c1cc3c(c(=O)n1C2)COC(=O)[C@]3(O)CC |  |  |  |  | > 100 µM | > 100 | 1.54 µM | 0.00161 µM | 0.349 µM | 0.0349 µM |  |
| CCOC(=O)/C(C#N)=C1\N[C@H](C(=O)OCC)CO1 | > 100 |  | > 100 | > 100 |  |  |  |  |  |  | TGI (XF 498 CNS): 78.1 µM; TGI (HOP-18 NSCLC): > 100 µM |
| COc1ccc(COCC(Cn2ccnc2)OCc2ccc(C(=O)O)cc2)cc1 (centres undefined) | > 100 |  | > 100 | > 100 |  |  |  |  |  |  | TGI (DMS 114 small cell lung): > 100 µM; TGI (XF 498 CNS): > 100 µM |
| COC(=O)[C@]1(C)CCC[C@@]2(C)C1CCC1=C[C@@]3(C(C)C)CC[C@]12OO3 (some centres undefined) | 71.5 | 87.2 | 65.7 | 74.1 |  |  |  |  |  |  |  |
| COc1ccc(-c2ccc(/C=N/n3c(COc4ccc(Cl)cc4)n[nH]c3=S)o2)c([N+](=O)[O-])c1 |  |  |  |  |  | 35.9 | > 100 µM |  | 12.2 µM | 25.9 µM |  |
| Nc1nc(Nc2cccc(F)c2)nc2ccccc12 |  |  |  |  | > 100 µM | > 100 | 36.6 µM | 37.3 µM | 31 µM | 16.8 µM |  |
| CC1=CC(=O)C(C(C)=Nc2ccccc2Cl)C(=O)O1 (centres undefined) |  |  |  |  | > 100 µM | > 100 | > 100 µM | > 100 µM | > 100 µM | > 100 µM |  |
| CC1CC2(CC[C@@H]1O)OCCO2 (some centres undefined) | > 100 | > 100 | > 100 | > 100 |  |  |  |  |  |  | TGI (XF 498 CNS): > 100 µM |
| CC(=O)C1=C([O-])C(C)OC1=O.CC(=O)C1=C([O-])C(C)OC1=O.[NH-]C1CCCC[C@H]1[NH-].[Pt+4] (centres undefined) | > 100 | > 100 | > 100 | > 100 |  |  |  |  |  |  | GI50 (DLD-1 colon): > 100 µM; GI50 (XF 498 CNS): 66.9 µM; TGI (XF 498 CNS): > 100 µM; GI50 (DMS 273 small cell lung): 44.9 µM; GI50 (M19-MEL melanoma): 56 µM; GI50 (LXFL 529 NSCLC): 36.2 µM |
| CCc1c[nH]c2ncnc(N3CC[C@@](N)(CNC(=O)c4ccc(F)cc4F)C3)c12 |  |  |  |  | > 100 µM | > 100 | > 100 µM | 42.2 µM | 35.4 µM | 33.5 µM |  |
| COc1cc2cc(Oc3ccc(NC(=O)c4ccc(Cl)c(C(F)(F)F)c4)cc3)c(C)nc2cc1OC |  |  |  |  | > 100 µM | > 100 | > 100 µM | 26.2 µM | 4.3 µM | 14.7 µM |  |
| Cc1ncc([N+](=O)[O-])n1CCNC(=O)CCCn1cnc([N+](=O)[O-])n1 |  |  |  |  | > 100 µM | > 100 | > 100 µM |  |  |  |  |
| O=[N+]([O-])c1nccn1CC1OC(n2ccnc2[N+](=O)[O-])C(O)C(O)C1O (centres undefined) |  |  |  |  |  | > 100 |  |  |  |  |  |
| COc1ccccc1-c1c(C)nn2c(NCc3ccccn3)cc(C)nc12 |  |  |  |  | > 50 µM | > 50 | > 50 µM | > 40.2 µM | 30.6 µM | 23 µM |  |
| C/C1=C\CC[C@@](C)(O)[C@@H]2CC3[C@@H](OC(=O)C34CC4)[C@@H](O2)[C@H](C)CCC1 (some centres undefined) |  |  |  |  |  | 44.6 | 44.2 µM |  | 20.1 µM | 20.3 µM |  |
| Cn1cc(-c2ccc3c(c2)CCN3C(=O)Cc2cccc(C(F)(F)F)c2)c2c(N)ncnc21 |  |  |  |  | 19.5 µM | 28.7 | 21.2 µM | 2.5 µM | 4.86 µM | 4.46 µM |  |
